# Test results reported in patent US9308215B2, “Avermectins and milbemycins as anti-mycobacterial agents” (priority 2013, dated 2016).
# Like-named read-outs stand apart in the source and are kept apart here.
# Assays:
# M. intracellulare = experiment: MIC against mycobacterial species; assay type: cell-based
# R. jostii = experiment: microbe, parasite or virus in culture; assay type: cell-based, Rhodococcus jostii; settings: strain RHA1, WT
# A. baumannii = experiment: microbe, parasite or virus in culture; assay type: cell-based, Acinetobacter baumannii; settings: strain ATCC 1960, WT
# [1] = cited from earlier work; for Cmax / AUC / T½: Humans
# P. aeruginosa = experiment: microbe, parasite or virus in culture; assay type: cell-based, Pseudomonas aeruginosa; settings: strain PA01 (H103), WT
# S. aureus = experiment: microbe, parasite or virus in culture; assay type: cell-based, Staphylococcus aureus; settings: strain ATCC 25923, WT
# E. coli = experiment: microbe, parasite or virus in culture; assay type: cell-based, Escherichia coli; settings: strain O157:H7, WT
# [2] = Dogs, 250 μg/kg oral; cited from earlier work
# M. aurum = experiment: MIC against mycobacterial species; assay type: cell-based; settings: M. aurum
# M. smegmatis = experiment: microbe, parasite or virus in culture; assay type: cell-based, Mycobacterium smegmatis; settings: strain mc^2155, WT
# K. rhizophila = experiment: microbe, parasite or virus in culture; assay type: cell-based, Kocuria rhizophila; settings: WT
# [3] = Horses, 200 μg/kg oral; cited from earlier work
# [4] = tested on: M. tuberculosis H37Rv and mc25857 (an MDR isolate); assay type: cell-based, Mycobacterium tuberculosis; settings: in vitro against M. tuberculosis, survival kinetics
# M. tuberculosis Erdman [5] = experiment: Mouse in vivo TB model, acute (GKO); settings: for Toxicity / Log10 cfu reduction (lungs): Acute (GKO), Erdman; for Log10 cfu reduction (lungs): 50/35/15 H2O/PEG300/PG
# Protocol: Mice were low-dose aerosol infected (50-100 bacteria). In the acute model, immune compromised mice were left untreated for 13 days to allow the infection to become established before 9 days of consecutive drug therapy was initiated. Drugs were administered by oral gavage. Log10 cfu reductions in the lungs were compared to untreated group. Rifampin was included as an internal control. An ordinary one-way ANOVA Bonferroni's multiple comparisons test was used to calculate p values. A p value<0.05 indicates statistically significant differences compared to the control group (vehicle).
# Using an acute TB model, immune compromised mice were low-dose aerosol infected and then left untreated for 13 days to allow the infection to become established before 9 days of consecutive drug therapy was initiated. Drugs were administered orally and Log10 cfu reductions in the lungs were compared to and untreated group (vehicle) to rifampin treatment. […] Rifampicin was included as control.
# M. tuberculosis [6] = experiment: microbe, parasite or virus in culture; assay type: cell-based, Mycobacterium tuberculosis
# M. phlei = experiment: MIC against mycobacterial species; assay type: cell-based; settings: M. phlei
# [7] = tested on: representative Gram-positive and Gram-negative bacteria; assay type: cell-based
# M. bovis BCG = experiment: microbe, parasite or virus in culture; assay type: cell-based, Mycobacterium bovis; settings: strain BCG Pasteur, WT
# M. avium = experiment: MIC against mycobacterial species; assay type: cell-based, Mycobacterium avium
# S. lividans = experiment: microbe, parasite or virus in culture; assay type: cell-based, Streptomyces lividans; settings: strain 1326, WT
# [8] = 0.2 mg/kg oral, cited from earlier work
# M. chelonae = experiment: MIC against mycobacterial species; assay type: cell-based; settings: M. chelonae
# M. microti = experiment: microbe, parasite or virus in culture; assay type: cell-based
# [9] = single dose, clinical studies, cited from earlier work
# M. tuberculosis Erdman [10] = experiment: Mouse in vivo TB model, chronic (Balb/C); settings: 10 mg/kg bw PO
# M. gordonae = experiment: MIC against mycobacterial species; assay type: cell-based; settings: M. gordonae 324
# [11] = mice; cited from earlier work
# [12] = ivermectin: extra-label use; selamectin, moxidectin: therapeutic doses; cited from earlier work
# M. tuberculosis [13] = settings: Jayaram et al. 2003; cited from earlier work
# [14] = less sensitive strains CI15072, CI12081, BC-MDR2, BC-DS4 and BC-DS5
compound,measurement,setting,value
CC[C@H](C)[C@H]1O[C@]2(CC[C@@H]1C)C[C@@H]1C[C@@H](C/C=C(\C)[C@@H](O[C@H]3C[C@H](OC)[C@@H](O[C@H]4C[C@H](OC)[C@@H](O)[C@H](C)O4)[C@H](C)O3)[C@@H](C)/C=C/C=C3\CO[C@@H]4[C@H](O)C(C)=C[C@@H](C(=O)O1)[C@]34O)O2 [Ivermectin],MIC,M. intracellulare; M. intracellulare 1403 ATCC35761,4 µg/mL
same,MIC,M. intracellulare; M. intracellulare 1403 Trudeau,4 µg/mL
same,MIC,M. intracellulare; M. intracellulare D673,8 µg/mL
same,MIC,M. intracellulare; M. intracellulare FM,8 µg/mL
same,In vitro MIC90,R. jostii,>256 µg/mL
same,In vitro MIC90,A. baumannii,>256 µg/mL
same,Cmax,[1]; 12 mg (165 μg/kg) oral,47 ng/mL
same,AUC,[1]; 30 mg (347-541 μg/kg) oral,2819 ng·h/mL
same,Cmax,[1]; 30 mg (347-541 μg/kg) oral,85 ng/mL
same,T½,[1]; 30 mg (347-541 μg/kg) oral,19 h
same,AUC,[1]; 30 mg (fed) oral,4564 ng·h/mL
same,Cmax,[1]; 30 mg (fed) oral,260 ng/mL
same,T½,[1]; 30 mg (fed) oral,15 h
same,AUC,[1]; 90 mg (1031-1466 μg/kg) oral,2910 ng·h/mL
same,Cmax,[1]; 90 mg (1031-1466 μg/kg) oral,158 ng/mL
same,T½,[1]; 90 mg (1031-1466 μg/kg) oral,19 h
same,AUC,[1]; 120 mg (1404-2000 μg/kg) oral,4547 ng·h/mL
same,Cmax,[1]; 120 mg (1404-2000 μg/kg) oral,247 ng/mL
same,T½,[1]; 120 mg (1404-2000 μg/kg) oral,19 h
same,plasma concentrations,"[1]; healthy volunteers, 120 mg",ca. 0.25 μg/mL
same,maximal concentration in plasma,[1]; standard dose of 12 mg,ca. 50 ng/mL
same,In vitro MIC90,P. aeruginosa,>256 µg/mL
same,In vitro MIC90,S. aureus,>256 µg/mL
same,In vitro MIC90,E. coli,>256 µg/mL
same,AUC,[2],5600 ng·h/mL
same,Cmax,[2],132 ng/mL
same,T½,[2],80 h
same,MIC,M. aurum,2 µg/mL
same,In vitro MIC90,M. smegmatis,8 µg/mL
same,In vitro MIC90,K. rhizophila,>256 µg/mL
same,AUC,[3],3184 ng·h/mL
same,Cmax,[3],44 ng/mL
same,T½,[3],20 h
same,bactericidal or bacteriostatic,[4],Bactericidal
same,activity in vivo in acute TB model,"M. tuberculosis Erdman [5]; 5 and 10 mg/kg doses, oral, Erdman 107",did not show activity
same,Toxicity,M. tuberculosis Erdman [5]; 5 mg/kg bw PO,None
same,Log10 cfu reduction (lungs),M. tuberculosis Erdman [5]; 5 mg/kg bw PO,0.32 Log10 cfu
same,Toxicity,M. tuberculosis Erdman [5]; 10 mg/kg bw PO,None
same,Log10 cfu reduction (lungs),M. tuberculosis Erdman [5]; 10 mg/kg bw PO,0.4 Log10 cfu
same,MIC50,M. tuberculosis [6]; [14],< 8 µg/mL
same,MIC90,M. tuberculosis [6]; [14],24 µg/mL
same,In vitro MIC90,"M. tuberculosis [6]; strain 1254, WT",8 µg/mL
same,In vitro MIC90,M. tuberculosis [6]; strain BC-DS1 (drug-susceptible),4 to 16 µg/mL
same,In vitro MIC90,M. tuberculosis [6]; strain BC-DS3 (drug-susceptible),8 to 16 µg/mL
same,value in parentheses in MIC90 column (MIC50),M. tuberculosis [6]; strain BC-DS4,8 µg/mL
same,In vitro MIC90,M. tuberculosis [6]; strain BC-DS4 (drug-susceptible),64 µg/mL
same,value in parentheses in MIC90 column (MIC50),M. tuberculosis [6]; strain BC-DS5,8 µg/mL
same,In vitro MIC90,M. tuberculosis [6]; strain BC-DS5 (drug-susceptible),> 128 µg/mL
same,value in parentheses in MIC90 column (MIC50),M. tuberculosis [6]; strain BC-MDR2,8 µg/mL
same,In vitro MIC90,"M. tuberculosis [6]; strain CDC 1551, WT",4 to 8 µg/mL
same,In vitro MIC90,"M. tuberculosis [6]; strain Erdman, WT",8 µg/mL
same,In vitro MIC90,"M. tuberculosis [6]; strain H37Rv, WT",6 µg/mL
same,MIC,M. phlei,32 µg/mL
same,Inhibitory effects,[7],not observed
same,In vitro MIC90,M. bovis BCG,4 µg/mL
same,MIC,M. avium; M. avium 702,>256 µg/mL
same,MIC,M. avium; M. avium 715,>256 µg/mL
same,MIC,M. avium; M. avium ATCC 25291,>128 µg/mL
same,In vitro MIC90,S. lividans,>256 µg/mL
same,Cmax,[8]; Mouse (lung),20 ng/mL
same,AUC,[8]; Mouse (plasma),573 ng·h/mL
same,Cmax,[8]; Mouse (plasma),20 ng/mL
same,T½,[8]; Mouse (plasma),9.3 h
same,MIC,M. chelonae,4 µg/mL
same,MIC,M. microti; M. microti 1601,4 µg/mL
same,MIC,M. microti; M. microti 1608,256 µg/mL
same,dose reported safe in humans,[9],≤ 120 mg
same,dose reported safe in humans,[9]; listed as ivermectin,120 mg
same,Toxicity,M. tuberculosis Erdman [10],None
same,Log10 cfu reduction (lungs),M. tuberculosis Erdman [10]; 50/35/15 H2O/PEG300/PG,−0.11 Log10 cfu
same,MIC,M. gordonae,4 µg/mL
same,LD50,[11],25 mg/kg body weight
same,toxicity in dogs lacking MDR1 P-glycoprotein / homozygous MDR1 mutation,[12],severe signs of neurotoxicity
CO[C@H]1/C=C/O[C@@]2(C)Oc3c(C)c(O)c4c(O)c(c(/C=N/N5CCN(C)CC5)c(O)c4c3C2=O)NC(=O)/C(C)=C\C=C\[C@H](C)[C@H](O)[C@@H](C)[C@@H](O)[C@@H](C)[C@H](OC(C)=O)[C@@H]1C [Rifampin],"AUC24/MIC value required for 1 log 10 CFU/ml reduction, relative to avermectins and milbemycins",M. tuberculosis [13],more than 10 times higher
